Results taken from patent publication US5204341A, “1-arylsulphonyl-2-pyrrolidone derivatives, their preparation process and the new intermediates obtained, their use as medicaments and the pharmaceutical compositions containing them” (priority 1990, dated 1993).
Like-named read-outs stand apart in the source and are kept apart here.

How the values were obtained:
Muscarinic receptor 1 = biological target: T1, Muscarinic receptor 1 (Rattus norvegicus, UniProt P08482); test: Affinity for the muscarinic M1 receptor ([^3 H]pirenzepine binding, rat cortex); settings: 0.25 nM ^3 H pirenzepine, 60 min, 25° C., pH 7.4
T1 construct: cortex removed from the brains of male rats weighing 150 to 200 g (Iffa Credo); from tissue; host or cells: rat cerebral cortex homogenate
T1 sequence (P08482 1-460): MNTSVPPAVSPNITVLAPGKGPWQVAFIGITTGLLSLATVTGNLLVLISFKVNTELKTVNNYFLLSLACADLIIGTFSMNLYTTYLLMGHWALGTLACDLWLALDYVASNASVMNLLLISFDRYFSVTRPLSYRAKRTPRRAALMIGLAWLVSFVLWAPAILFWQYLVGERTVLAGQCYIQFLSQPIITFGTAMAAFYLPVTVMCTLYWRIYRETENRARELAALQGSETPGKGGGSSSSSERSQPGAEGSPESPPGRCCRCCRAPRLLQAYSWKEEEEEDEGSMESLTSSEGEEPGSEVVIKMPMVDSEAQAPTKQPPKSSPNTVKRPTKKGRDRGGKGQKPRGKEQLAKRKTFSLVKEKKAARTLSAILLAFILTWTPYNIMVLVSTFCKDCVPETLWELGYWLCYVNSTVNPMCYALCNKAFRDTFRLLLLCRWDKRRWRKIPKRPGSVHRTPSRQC
Method: Its preparation is carried out from cortex removed from the brains of male rats weighing 150 to 200 g (Iffa Credo) ground up in a Polytron in a 10 mM Na/K pH 7.4 buffer. After incubation (0.5 ml aliquots of homogenate) for 60 minutes at 25° C. in the presence of 0.25 nM of ^3 H pirenzepine either on its own, or with the product to be tested, or with an excess of pirenzepine at 10^-5 M (in order to determine the non-specific fixed radioactivity), the incubates are cooled down and filtered.
The filtration is carried out on Whatman GF/C filters prewashed in a 0.05% polyethylene imine solution. The filters are rinsed with 3×5 ml of 10 mM Na/K pH 7.4 phosphate buffer, then measurements are carried out by liquid scintillation.
(§1) The results are expressed in IC50 (concentration necessary to inhibit 50% of the fixed specific radio-activity).

Muscarinic receptor 2 = test: Affinity for the muscarinic M2 receptor ([^3 H]quinuclidinyl benzylate binding, rat brain); settings: 0.3 nM ^3 H quinuclidinyl benzylate, 60 min, 25° C., pH 7.5
Method: The preparation is carried out from the brains of male rats weighing 150 to 200 g (Iffa Credo).
The brains are ground up (Teflon-glass) in a 0.32 M sucrose solution. The homogenate is centrifuged for 10 minutes at 1000 g (0-4° C.).
The supernatant obtained is collected and centrifuged again at 30000 g for 15 minutes (0-4° C.).
The deposit is put in suspensions in a 50 mM Tris pH 7.5 buffer and the new homogenate is centrifuged again at 30000 g for 15 minutes (0-4° C.).
After elimination of the supernatants, the deposits can be used immediately or kept for up to one month at -30° C.
For one experiment the deposits are firstly defrosted, if necessary, at ambient temperature and put in suspension using a Dounce grinder in a 50 mM Tris pH 7.5 buffer. 2 ml aliquots are incubated for 60 minutes at 25° C. in the presence of 0.3 nM of
^3 H quinuclidinyl benzylate either on its own, or with the product to be tested, or with benzatropine at 10^-5 M in order to determine the non-specific fixed radioactivity.
At the end of the incubation, the tubes of incubate are cooled down to 4° C. and the incubate is filtered rapidly on Whatman GF/C filters. The filters are rinsed with 3×5 ml of 50 mM Tris pH 7.5 buffer then measurements are carried out by liquid scintillation (Henry I Yamamura, Solomon H. Synder, Proc. Nat. Acad Sc. (1974) 71, No. 5, 1725-1729).
as §1

[1] = system: acetylcholine-induced contractions of isolated ileum; test: Antagonism of acetylcholine-induced contractions of isolated guinea-pig ileum; assay type: cell-based; settings: read-out: Antagonistic to ACh, IC50
Method: (§2) The interaction of the compounds with different receptors was evaluated on the isolated ileum of a guinea-pig according to the following method.
(§3) 2.5-3 cm segments of the guinea-pigs, ileum were washed and immediately suspended in a bath containing 10 ml of a Tyrode solution at 37° C. and aerated with a mixture of oxygen (95%) and carbon dioxide (5%). After a stabilization period of at least 30 minutes, the contractions are recorded, maintaining the preparation under constant pressure of 1 g, using a sensor connected to a polygraph. […] The following dose was only added to the bath after the preparation returned to its base line. Arecoline was used as reference product. The antagonistic action was evaluated on contractions induced by acetylcholine (1×10^-6 M), histamine (1×10^-5 M) and barium chloride (2×10^-5 M). […] The contact time before adding the agonist was one minute.
(§4) For each compound the dose-response curves are obtained with 4 to 6 different concentrations and 3 to 5 independent tests. The agonistic activity is expressed by pD2 (negative logarithm of the dose which produces 50% of the maximum effect). The antagonistic activity is expressed by IC50 (concentration inhibiting 50% of the maximum response).

[2] = system: histamine-induced contractions of isolated ileum; test: Antagonism of histamine-induced contractions of isolated guinea-pig ileum; assay type: cell-based; settings: histamine 1×10^-5 M, contact time one minute, 37° C., read-out: Antagonistic to Histam., IC50
Method: as §2, §3, §4

[3] = system: barium chloride-induced contractions of isolated ileum; test: Antagonism of barium chloride-induced contractions of isolated guinea-pig ileum; assay type: cell-based; settings: read-out: Antagonistic to BaCl2, IC50
Method: as §2, §3, §4

isolated ileum = test: Agonistic action on isolated guinea-pig ileum; assay type: cell-based; settings: negative logarithm of the dose producing 50% of the maximum effect; for EC50: Cavia porcellus, read-out: Agonistic action pD2 (converted)
Method: as §2, §3, §4

[4] = system: cholinomimetic effects induced by carbachol; test: In vivo anti-cholinergic action: inhibition of cholinomimetic effects induced by carbachol in mice; parameters: species or system CD1 male mice; settings: for ED50 / ED (1 degree C): Mus musculus, ip, 0.5 h; for ED (1 degree C): rectal temperature, read-out: Dose changing body temperature (hypothermic effect of carbachol) by 1° C.
Method: The anti-cholinergic activity of the compounds was determined by evaluating the capacity to inhibit the cholino-mimetic effects induced by carbachol. Atropine sulphate was used as reference product.
CD1 male mice weighing 25 to 30 g are used. They are divided into groups of 6 animals and treated by intraperi-toneal route at scalar doses of the products or 0.25% Methocel for the controls. 12 animals are used for each dose. 30 minutes after the administration of the compounds, 1 mg/kg of carbachol, dissolved in physiological serum, was injected into the mice by sub-cutaneous route.
Each animal was examined 30 minutes after the injection of carbachol to evaluate the presence of diarrhoea, salivation and weeping; the body temperature was also measured using a thermocouple inserted 1.5 cm inside the rectum.
For each compound, we have determined the dose which can inhibit, in 50% of the animals, the appearance of cholinomimetic symptoms induced by carbachol and […] the hypothermic effect induced by the cholinergic agent by 1° C.

[5] = Cavia porcellus, acetylcholine 1×10^-6 M, contact time one minute, 37° C.
[6] = Cavia porcellus, barium chloride 2×10^-5 M, contact time one minute, 37° C.
[7] = i.p., 30 min before carbachol 1 mg/kg s.c., read-out: Dose inhibiting diarrhoea in 50% of the animals
[8] = i.p., 30 min before carbachol 1 mg/kg s.c., read-out: Dose inhibiting salivation in 50% of the animals
[9] = i.p., 30 min before carbachol 1 mg/kg s.c., read-out: Dose inhibiting weeping in 50% of the animals
[10] = i.p., 30 min before carbachol 1 mg/kg s.c.

Compound	IC50 (Muscarinic receptor 1) [nM]	IC50 (Muscarinic receptor 2) [nM]	IC50 [1, 5] [nM]	IC50 ([2]; Cavia porcellus) [nM]	IC50 [3, 6] [nM]	EC50 (isolated ileum) [nM]	further results
CCN(CC)c1ccc(S(=O)(=O)N2CC(O)CC2=S)cc1 (stereo not shown) [Example 3, 1-[[4-(diethylamino)-phenyl]-sulphonyl]-4-hydroxy-2-pyrrolidine thione]	370	> 5000	3000	> 10000	> 10000	> 100000	–
CCN(CC)c1ccc(S(=O)(=O)N2CC(O)CC2=O)cc1 (stereo not shown) [Example 1, 1-[[4-(diethylamino)-phenyl]sulphonyl]-4-hydroxy-2-pyrrolidinone]	370	> 5000	860	> 10000	> 10000	> 100000	–
1-[[4-(dimethylamino)-phenyl]-sulphonyl]-4-(2,2-dimethyl-1-oxo-propoxy)-2-pyrrolidinone [Example 2]	720	> 5000	–	–	–	–	IC50 ([1]; acetylcholine 1×10^-6 M, contact time one minute, 37° C.): 5500 nM; IC50 [2]: > 10000 nM; IC50 ([3]; barium chloride 2×10^-5 M, contact time one minute, 37° C.): > 10000 nM; Agonistic action pD2 (isolated ileum): < 4
CN1[C@@H]2CC[C@H]1C[C@@H](OC(=O)C(CO)c1ccccc1)C2 (stereo partly shown) [Atropine, reference compound]	–	–	–	–	–	–	IC50 ([1]; Cavia porcellus): 9.5 nM; ED50 ([4]; read-out: Dose inhibiting diarrhoea in 50% of the animals): 0.04 mg/kg; ED50 ([4]; read-out: Dose inhibiting salivation in 50% of the animals): 0.06 mg/kg; ED50 ([4]; read-out: Dose inhibiting weeping in 50% of the animals): 0.05 mg/kg
O=S(=O)(c1ccc(N2CCCCCC2)cc1)N1CC(O)CC1=S (stereo not shown) [Example 7, 1-[[4-(hexahydro-1H-azepin-1-yl)-phenyl]-sulphonyl]-4-hydroxy pyrrolidine thione]	83	–	510	> 10000	3600	> 100000	ED50 [4, 7]: 5 mg/kg; ED50 [4, 8]: 50 mg/kg; ED50 [4, 9]: > 50 mg/kg; ED (1 degree C) [4, 10]: 20 mg/kg
O=C1CC(O)CN1S(=O)(=O)c1ccc(N2CCCCCC2)cc1 (stereo not shown) [Example 6, 1-[[4-(hexahydro-1H-azepin-1-yl)-phenyl]-sulphonyl]-4-hydroxy-pyrrolidinon]	62	–	110	> 10000	2500	> 100000	ED50 [4, 7]: 12 mg/kg; ED50 [4, 8]: > 50 mg/kg; ED50 [4, 9]: > 50 mg/kg; ED (1 degree C) [4, 10]: 50 mg/kg
COC(=O)C1=CCCN(C)C1 [Arecoline, reference compound]	–	–	–	–	–	209	–
O=C1CC(O)CN1S(=O)(=O)c1ccc(N2CCCCC2)cc1 (stereo not shown) [Example 4, 4-hydroxy-1-[[4-(1-piperidinyl)-phenyl]-sulphonyl]-2-pyrrolidinone]	560	10000	1200	> 10000	2500	> 100000	–
O=S(=O)(c1ccc(N2CCCCC2)cc1)N1CC(O)CC1=S (stereo not shown) [Example 5]	170	> 5000	1400	> 10000	> 10000	> 100000	ED50 [4, 7]: 6 mg/kg; ED50 [4, 8]: 50 mg/kg; ED50 [4, 9]: > 50 mg/kg; ED (1 degree C) [4, 10]: 25 mg/kg; selectivity of in vivo anticholinergic action (in words) ([4]; contrary to atropine): selective anticholingeric action at the level of the intestinal musculature
C[N+](C)(C)CCOC(N)=O [Carbochol, carbachol, reference compound]	–	–	–	–	–	–	decrease of the rectal temperature ([4]; 1 mg/kg s.c., control mice): about 2.5 °C; induction of diarrhoea, salivation and weeping ([4]; 1 mg/kg s.c., control mice): induced diarrhoea, salivation and weeping in all the control mice
COc1ccc(Cc2nccc3cc(OC)c(OC)cc23)cc1OC [Papaverine, papaverine, reference compound]	–	–	–	–	–	–	IC50 ([3]; Cavia porcellus): 45000 nM
